Assay [1] has as its system Saccharomyces cerevisiae. Briefly: Antifungal activity against Saccharomyces cerevisiae A364A at 0.1 mg/disk. The format is functional.
Assay [2] has as its system Saccharomyces cerevisiae. Briefly: Antifungal activity against Saccharomyces cerevisiae STX338-2C mutant at 0.1 mg/disk. The format is functional.
Assay [3] has as its system Saccharomyces cerevisiae. The assay is described as follows: Antifungal activity against Saccharomyces cerevisiae 14028g mutant at 0.1 mg/disk. The format is functional.
Assay [4] relates to Saccharomyces cerevisiae. The assay is described as follows: Antifungal activity against Saccharomyces cerevisiae GT160-45c at 0.1 mg/disk. Format: functional, organism-based.
Assay [5] relates to Saccharomyces cerevisiae. Briefly: Antifungal activity against Saccharomyces cerevisiae RAY-3Aa at 0.1 mg/disk. The format is functional, organism-based.

Active and inactive are the calls of the source. The calls are words filed in the database; no cut-off is given here.

As to `CC(=O)O[C@@H]1C[C@]2(C)[C@H]3CC[C@]4(C)[C@@H]([C@H](C)[C@@H]5O[C@H]5[C@H](C)C(C)C)CC[C@H]4C3=CC[C@H]2[C@H](OS(=O)(=O)[O-])[C@H]1O.[Na+]` [ACANTHOSTEROL SULFATE I], the “inhibition zone (IZ)” value with Saccharomyces cerevisiae [1] was found to be 7 mm; in the assay on Saccharomyces cerevisiae [2] it was 8 mm; in the assay with Saccharomyces cerevisiae [3], 9 mm. The outcome in the assay with Saccharomyces cerevisiae [4] and with Saccharomyces cerevisiae [5] was inactive.
On to `CC(=O)O[C@@H]1C[C@]2(C)[C@H]3CC[C@]4(C)[C@@H]([C@H](C)[C@@H]5O[C@H]5[C@@H](C)C(C)C)CC[C@H]4C3=CC[C@H]2[C@H](OS(=O)(=O)[O-])[C@H]1O.[Na+]` [ACANTHOSTEROL SULFATE J], for which the “inhibition zone (IZ)” value came out at 11 mm in the assay on Saccharomyces cerevisiae [1], 10 mm in the assay on Saccharomyces cerevisiae [2] and 11 mm with Saccharomyces cerevisiae [3]. For the same molecule, the result with Saccharomyces cerevisiae [4] and in the assay on Saccharomyces cerevisiae [5] was inactive.

(Values after ChEMBL document CHEMBL1151308, “Acanthosterol sulfates A-J: ten new antifungal steroidal sulfates from a marine sponge Acanthodendrilla sp” (1998).)
